Source: patent US20220289698A1, “INHIBITORS OF HUMAN ATGL” (Karl-Franzens-Universität Graz, priority 2019, published 2022)
Read-outs that look alike come from different tables or passages of the source.

Biological target: T1, human ATGL (Homo sapiens, UniProt Q96AD5)
T1 construct: made in house; host or cells: Expi cells (lysate, not purified)
T1 sequence (Q96AD5 1-504): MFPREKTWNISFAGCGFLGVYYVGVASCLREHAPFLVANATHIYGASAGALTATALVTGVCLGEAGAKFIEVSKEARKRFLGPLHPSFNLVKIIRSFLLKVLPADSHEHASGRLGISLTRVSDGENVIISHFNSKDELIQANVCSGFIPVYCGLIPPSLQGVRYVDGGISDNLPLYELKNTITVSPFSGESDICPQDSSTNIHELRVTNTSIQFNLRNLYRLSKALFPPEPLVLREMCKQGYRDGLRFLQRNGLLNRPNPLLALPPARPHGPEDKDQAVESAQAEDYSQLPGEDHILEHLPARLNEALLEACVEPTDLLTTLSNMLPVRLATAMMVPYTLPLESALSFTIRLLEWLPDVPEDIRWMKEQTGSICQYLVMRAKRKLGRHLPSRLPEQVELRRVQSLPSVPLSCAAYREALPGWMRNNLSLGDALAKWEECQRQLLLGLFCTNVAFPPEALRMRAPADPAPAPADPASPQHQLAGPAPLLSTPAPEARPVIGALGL
Assay: TG hydrolase activity, Expi cell lysates expressing human ATGL + CGI-58, radiolabelled triolein
Format: biochemical
Experimental: Triglyceride (TG) hydrolase activity was measured as previously described (Schweiger M et al., Methods in Enzymology, 2014, 538:171-93). In brief, TG hydrolase activity was determined by adding recombinant purified CGI-58 to Expi cell lysates expressing human ATGL. For determination of cross-species reactivity Expi lysates expressing ATGL from different model organisms (e.g. mouse, rat, rhesus monkey, goat, etc.) were used. Samples were incubated with DMSO (carrier) or increasing concentrations of ATGL inhibitors dissolved in DMSO. TG substrate was prepared by emulsifying 330 μM radiolabelled triolein (40,000 c.p.m./nmol) and 45 μM phosphatidylcholine/phosphatidylinositol (3:1) in 100 mM potassium phosphate buffer (pH 7.0) by sonication and adjusting to 5% essentially FA-free BSA. TG substrate was added to the reaction mixture and incubated for 1 h at 37° C. in the water bath. The reaction was terminated by adding methanol/chloroform/heptane (10:9:7) and 0.1 M potassium carbonate with 0.1 M boric acid (pH 10.5). After centrifugation at 800 g for 15 min the radioactivity in the upper phase was determined by liquid scintillation counting and the rate of FA hydrolysis was calculated. IC50 values were determined as inhibitor concentration capable of inhibiting TG hydrolase activity by 50% as compared to DMSO control. Samples were measured as duplicates. The determination of IC50 values for human ATGL is illustrated in FIG. 1.

[1] = Example 237, read-out: Inhibition of human ATGL − IC50
[2] = values of text and figure legend, read-out: IC50 on human ATGL (hATGL)
[3] = Example 238, read-out: Inhibition of human ATGL IC50

Row | IC50 [1] | Structure (SMILES) | other results
1 | 15 µM | CCCCCCOC(=O)c1csc(-c2ccc(OCC)cc2)n1 [Example 156, Hexyl 2-(4-ethoxyphenyl)thiazole-4-carboxylate] | –
2 | 15 µM | CCOc1ccc(-c2nc(C(=O)OCc3ccccc3)cs2)cc1 [Example 158, Benzyl 2-(4-ethoxyphenyl)thiazole-4-carboxylate] | –
3 | 8 µM | COCOc1ccc(-c2cccc(C(=O)OC(C)C)n2)cc1 [Example 13] | –
4 | – | CCOC(=O)c1cc(-c2ccc(OCC)cc2)no1 [AMU-4-245, reference compound] | IC50 [2]: ≥ 200 µM
5 | 2 µM | CCCCc1ccc(-c2cc(OC)cc(C(=O)OC(C)C)n2)cc1 [Example 57] | –
6 | 3 µM | C#CCOC(=O)c1csc(-c2ccc(OCC)cc2)n1 [Example 149, Prop-2-yn-1-yl 2-(4-ethoxyphenyl)thiazole-4-carboxylate] | –
7 | – | CCOC(=O)c1cc(-c2ccc(OCC)cc2)ns1 [AMU-27, reference compound] | IC50 [2]: ≥ 200 µM
8 | – | CCCOc1ccc(-c2nc(C(=O)OCc3ccsc3)cs2)cc1 [Example 232, Thiophen-3-ylmethyl 2-(4-propoxyphenyl)thiazole-4-carboxylate] | IC50 [3]: 12 µM
9 | – | CCOc1ccc(-c2nc(C(=O)OCc3cnco3)cs2)cc1 [Example 220] | IC50 [3]: 30 µM
10 | 5 µM | CCOC(=O)c1nc(-c2ccc(OCC)cc2)sc1I [Example 165, Ethyl 2-(4-ethoxyphenyl)-5-iodothiazole-4-carboxylate] | –
11 | – | CCOC(=O)c1cnc(-c2ccc(OCC)cc2)s1 [AM-52, reference compound] | IC50 [2]: > 200 µM
12 | 25 µM | CCOc1ccc(-c2nc(C(=O)OC(C)(C)C)c(C(=O)C3CC3)s2)cc1 [Example 174, tert-Butyl 5-(cyclopropanecarbonyl)-2-(4-ethoxyphenyl)thiazole-4-carboxylate] | –
13 | 15 µM | CCOc1ccc(-c2nc(C(=O)OCc3cccnc3)cs2)cc1 [Example 160, Pyridin-3-ylmethyl 2-(4-ethoxyphenyl)thiazole-4-carboxylate] | –
14 | 25 µM | CCOC(=O)c1nc(-c2ccc(OCC)cc2)sc1Br [Example 164, Ethyl 5-bromo-2-(4-ethoxyphenyl)thiazole-4-carboxylate] | –
15 | 15 µM | CCC/C=C/COC(=O)c1csc(-c2ccc(OCC)cc2)n1 [Example 155, (E)-Hex-2-en-1-yl 2-(4-ethoxyphenyl)thiazole-4-carboxylate] | –
16 | 10 µM | CCOC(=O)c1cccc(-c2ccc(C(C)OC)cc2)n1 (centres unmarked) [Example 45] | –
17 | 20 µM | CCOC(=O)c1cccc(-c2ccc(COC(C)=O)cc2)n1 [Example 93] | –
18 | 12 µM | CCOc1ccc(-c2nc(C(=O)OC(C)(C)C)c(C(=O)C(C)C)s2)cc1 [Example 173, tert-Butyl 2-(4-ethoxyphenyl)-5-isobutyrylthiazole-4-carboxylate] | –
19 | – | CCOc1ccc(-c2nc(C(=O)OCc3cocn3)cs2)cc1 [Example 218, Oxazol-4-ylmethyl 2-(4-ethoxyphenyl)thiazole-4-carboxylate] | IC50 [3]: 20 µM
20 | – | CN(C)C(=O)Nc1cccc(-c2ccc(N(C)C)cc2)c1 [atglistatin, reference compound] | IC50 [2]: > 200 µM
21 | 50 µM | CC(C)OC(=O)c1cccc(OCCc2ccccc2)n1 [Example 91] | –
22 | 20 µM | CCOc1ccc(-c2nc(C(=O)OCc3ccncc3)cs2)cc1 [Example 159, Pyridin-4-ylmethyl 2-(4-ethoxyphenyl)thiazole-4-carboxylate] | –
23 | – | CCOc1ccc(-c2ccc(C)c(C(=O)OC(C)C)n2)cc1 [NG-469, reference compound] | IC50 [2]: > 200 µM
24 | 2 µM | COc1cc(C(=O)OC(C)C)nc(-c2ccc(C(C)OC)cc2)c1 (centres unmarked) [Example 62] | –
25 | 10 µM | CCOc1ccc(-c2nc(C(=O)OC(C)(C)C)c(N3CCCCC3)s2)cc1 [Example 167, tert-Butyl 2-(4-ethoxyphenyl)-5-(piperidin-1-yl)thiazole-4-carboxylate] | –
26 | – | COc1ccc(-c2nc(C(=O)OCc3ccsc3)cs2)cc1 [Example 231, Thiophen-3-ylmethyl 2-(4-methoxyphenyl)thiazole-4-carboxylate] | IC50 [3]: 30 µM
